Data set [1] deals with E. coli (NBRC 14237). Format: cell-based, Escherichia coli. The conditions noted are these: minimum inhibitory concentration; synthetic peptides; method as described previously [6]. The text has this:
(§1) Pilosulin-like peptides 1–6 were chemically synthesized by the 9-fluorenylmethyloxycarbonyl (Fmoc) method, and we examined their biological activities (Table 3). We synthesized homodimeric pilosulin-like peptide 4, which was linked by a single disulfide bond. […] These activities were higher than those of magainin, a well-known Xenopus laevis antimicrobial peptide. […] The cysteine residue of pilosulin-like peptide 4 may be important for antifungal activity.
(§2) Pilosulin-like peptides 1–6 were prepared using Fmoc chemistry by GenScript (Nanjing, Jiangsu, China). The peptides were purified by RP-HPLC with a preparative C18 column. The purity and molecular weight of the final peptides were verified by HPLC and MS. Antimicrobial, hemolytic, and histamine-releasing activities were measured as described previously.

Data set [2] has as its system S. aureus (NBRC 12732). Format: cell-based, Staphylococcus aureus. Conditions: minimum inhibitory concentration; synthetic peptides; method as described previously [6].
Description: as §1, §2

Data set [3] has as its system S. cerevisiae (NBRC 10217). Type of data set: cell-based, Saccharomyces cerevisiae. Conditions: minimum inhibitory concentration; synthetic peptides; method as described previously [6].
Description: as §1, §2

Data set [4] in a line: Hemolytic activity. Format: cell-based. The conditions noted are these: for Hemolytic Activity (%) at 10 μM: peptide at 10 μM; for Hemolytic Activity (%) at 50 μM: peptide at 50 μM. The procedure: as §2
Data set [5] relates to rat mast cells. Briefly: Histamine-releasing activity. Type of data set: cell-based. The conditions noted are these: peptide at 10 μM. The procedure: as §2
For data set [6] the following is noted: peptide at 10 μM; ref Shigeri et al. [24]; cited from earlier work. The procedure: Table 3 Biological properties of O. monticola pilosulin-like peptides. | column: Hemolytic Activity (%) / at 10 μM
Data set [7] has as its system rat mast cells. The conditions noted are these: peptide at 10 μM; ref Shigeri et al. [24]; cited from earlier work. The procedure:
Table 3 Biological properties of O. monticola pilosulin-like peptides. | column: Histamine-Releasing Activity at 10 μM (%)

Read-outs that look alike come from different tables or passages of the source. Marks after values point to notes of the source that are not given here. Bridge positions count the residues as written; N and C are the ends. Ends that are not written are not given here. I, II: the chains in the order shown.

As for GILDWGKKVMDWIKDKM-NH2 [PLP1], the “MIC, E. coli (NBRC 14237)” value in data set [1] is below 3.1 µM. In data set [2], the “MIC, S. aureus (NBRC 12732)” value was below 3.1 µM. In addition, the “MIC, S. cerevisiae (NBRC 10217)” value in data set [3] was below 50 µM. Moreover, in data set [4], the “Hemolytic Activity (%) at 10 μM” value was “Negative” and the “Hemolytic Activity (%) at 50 μM” value is reported as “Negative”.
As for “GWGSIFKTVGKMIAKAAVKAAPEAISAMASQNE [PLP2]”, the “MIC, E. coli (NBRC 14237)” value in data set [1] was below 6.2 µM. The “MIC, S. aureus (NBRC 12732)” value in data set [2] was below 6.2 µM. In addition, the “MIC, S. cerevisiae (NBRC 10217)” value in data set [3] is below 50 µM. Besides, in data set [4], the “Hemolytic Activity (%) at 10 μM” value is listed as “Negative” and the “Hemolytic Activity (%) at 50 μM” value came to 10.4%.
Turning to “I: GVKELFGKAWGLVKKHLPKACGLLGYVKQ-OH / II: GVKELFGKAWGLVKKHLPKACGLLGYVKQ-OH (disulfide I:21-II:21) [PLP4]”, the “MIC, E. coli (NBRC 14237)” value in data set [1] was below 3.1 µM. Further, the “MIC, S. aureus (NBRC 12732)” value in data set [2] was below 3.1 µM. The “MIC, S. cerevisiae (NBRC 10217)” value in data set [3] is below 3.1 µM. Further, in data set [4], the “Hemolytic Activity (%) at 10 μM” value is “Negative” and the “Hemolytic Activity (%) at 50 μM” value stood at 10.5%. Also, in data set [5], the “Histamine-Releasing Activity at 10 μM (%)” value was found to be 66.4%. Moreover, the “Histamine-Releasing Activity at 10 μM (%)” value in data set [5] (listed as Pilosulin-like peptide 4) is on record as “comparable to that of melittin”.
As to “IKGKKIMKNMGKAMKIAGKVAKAMAPIVVPLIVSAA-NH2 [PLP6]”, the “MIC, E. coli (NBRC 14237)” value in data set [1] was below 3.1 µM. The “MIC, S. aureus (NBRC 12732)” value in data set [2] was below 3.1 µM. Moreover, in data set [4], the “Hemolytic Activity (%) at 10 μM” value was “Negative” and the “Hemolytic Activity (%) at 50 μM” value is “Negative”.
As for IWGALLGTLIPAITSAIQ-NH2 [PLP5], in data set [1], the “MIC, E. coli (NBRC 14237)” value is below 50 µM. Further, in data set [4], the “Hemolytic Activity (%) at 10 μM” value stood at 6.9% and the “Hemolytic Activity (%) at 50 μM” value was determined as 94.8%.
“KIKWGKIFKKGGKLIGKTALEAAANAAASEAISAMASQNE [PLP3]”: in data set [1], the “MIC, E. coli (NBRC 14237)” value was below 3.1 µM. Also, the “MIC, S. aureus (NBRC 12732)” value in data set [2] is below 25 µM. Moreover, the “MIC, S. cerevisiae (NBRC 10217)” value in data set [3] is below 50 µM. In addition, in data set [4], the “Hemolytic Activity (%) at 10 μM” value is reported as “Negative” and the “Hemolytic Activity (%) at 50 μM” value is recorded as “Negative”.
With Magainin [reference compound], the “MIC, E. coli (NBRC 14237)” value in data set [1] was below 12.5 µM. Further, the “MIC, S. aureus (NBRC 12732)” value in data set [2] is below 25 µM. Moreover, the “MIC, S. cerevisiae (NBRC 10217)” value in data set [3] was “Negative”.
As to Mastoparan, the “Hemolytic Activity (%) at 10 μM” value in data set [6] is recorded as 13.5 ^b %. For the same substance, the “Histamine-Releasing Activity at 10 μM (%)” value in data set [7] is 31.1 ^b %.
Regarding Melittin: a honey bee hemolytic peptide, the “Hemolytic Activity (%) at 10 μM” value in data set [6] is recorded as 100.0 ^b %. Further, the “Histamine-Releasing Activity at 10 μM (%)” value in data set [7] is 64.3 ^b %.

The record behind these values is publication PMC6356579, “Mass Spectrometry Analysis and Biological Characterization of the Predatory Ant Odontomachus monticola Venom and Venom Sac Components” (Toxins, 2019).
